{"source": "paper PMC4476799", "about": "“Englerin A Agonizes the TRPC4/C5 Cation Channels to Inhibit Tumor Cell Line Proliferation” (PLoS ONE, 2015)", "tested_on": "cancer cell lines from the cancer cell line encyclopedia (CCLE)", "experiment": "Cell line profiling (CLiP) proliferation experiment", "assay_type": "cell-based", "conditions": "Homo sapiens; for EC50: read-out: Inflection Point; for IC50: read-out: Crossing Point", "description": "Compound profiling experiment and data analysis was performed as previously described. Data was imported and plotted using the Tibco Spotfire DXP application. Lines were categorized as sensitive, intermediate and refractory as follows: Amax<-40 & Inflection Point <2 ~ Sensitive, Amax>-20 & Inflection Point >10 ~ Refractory, all else were called Intermediate. Cancer Cell line HG-U133 Plus 2 data was processed and normalized as described. […] Five sets of refractory cell lines were generated from the pool of refractory cell lines trying to match the lineage composition of the set of sensitive cell lines. The limma package was used as previously described to perform the statistical comparison.", "key": {"[1]": {"conditions": "KYSE-150, KYSE-150 (oesophagus)"}, "[2]": {"conditions": "L-363, L-363 (haematopoietic_and_lymphoid_tissue)"}, "[3]": {"conditions": "LN-18, LN-18 (central_nervous_system)"}, "[4]": {"conditions": "LN-229, LN-229 (central_nervous_system)"}, "[5]": {"conditions": "LS180, LS 180 (large_intestine)"}, "[6]": {"conditions": "LS-411N, LS411N (large_intestine)"}, "[7]": {"conditions": "MC116, MC116 (haematopoietic_and_lymphoid_tissue)"}, "[8]": {"conditions": "MIA PaCa-2, MIA PaCa-2 (pancreas)"}}, "note": "Like-named read-outs stand apart in the source and are kept apart here.", "data": [{"smiles": "CC(C)[C@@]12C[C@@H](O)[C@@](C)(O1)[C@@H]1CC[C@@H](C)[C@H]1[C@@H]2OC(=O)/C=C/c1ccccc1", "note": "[Englerin B]", "values": [{"measurement": "EC50", "setting": "KARPAS-299, KARPAS-299", "result": 12.7, "unit": "µM"}, {"measurement": "IC50", "setting": "KARPAS-422, KARPAS-422", "result": 11.4, "unit": "µM"}, {"measurement": "EC50", "setting": "KARPAS-422, KARPAS-422", "result": 11.4, "unit": "µM"}, {"measurement": "IC50", "setting": "KARPAS-422, KARPAS-422 cells", "result": 11.4, "unit": "µM"}, {"measurement": "EC50", "setting": "KARPAS-422, KARPAS-422 cells", "result": 11.4, "unit": "µM"}, {"measurement": "EC50", "setting": "KATO III, cell line KATO III", "result": 18.8, "unit": "µM"}, {"measurement": "IC50", "setting": "KATO III", "result": 19.4, "unit": "µM"}, {"measurement": "EC50", "setting": "KATO III", "result": 18.8, "unit": "µM"}, {"measurement": "IC50", "setting": "KCL-22, KCL-22", "result": 13.5, "unit": "µM"}, {"measurement": "EC50", "setting": "KCL-22, KCL-22", "result": 12.9, "unit": "µM"}, {"measurement": "IC50", "setting": "KCL-22, KCL-22 cells", "result": 13.5, "unit": "µM"}, {"measurement": "EC50", "setting": "KCL-22, KCL-22 cells", "result": 12.9, "unit": "µM"}, {"measurement": "IC50", "setting": "KLE", "result": "> 30", "unit": "µM"}, {"measurement": "EC50", "setting": "KLE", "result": 11.1, "unit": "µM"}, {"measurement": "IC50", "setting": "KM12, KM12", "result": "> 30", "unit": "µM"}, {"measurement": "IC50", "setting": "KM12, KM12 cells", "result": "> 30", "unit": "µM"}, {"measurement": "IC50", "setting": "KMS-11, KMS-11", "result": 13.5, "unit": "µM"}, {"measurement": "EC50", "setting": "KMS-11, KMS-11", "result": 13.2, "unit": "µM"}, {"measurement": "EC50", "setting": "KMS-11, KMS-11 cells", "result": 13.2, "unit": "µM"}, {"measurement": "IC50", "setting": "KMS-12-BM, KMS-12-BM cells", "result": 24.8, "unit": "µM"}, {"measurement": "EC50", "setting": "KMS-12-BM, KMS-12-BM cells", "result": 24.8, "unit": "µM"}, {"measurement": "IC50", "setting": "KMS-12-BM", "result": 24.8, "unit": "µM"}, {"measurement": "EC50", "setting": "KMS-12-BM", "result": 24.8, "unit": "µM"}, {"measurement": "IC50", "setting": "KNS-62, KNS-62", "result": "> 30", "unit": "µM"}, {"measurement": "IC50", "setting": "KNS-62, KNS-62 cells", "result": "> 30", "unit": "µM"}, {"measurement": "IC50", "setting": "KU812, KU812", "result": 8.76, "unit": "µM"}, {"measurement": "EC50", "setting": "KU812, KU812", "result": 13.2, "unit": "µM"}, {"measurement": "EC50", "setting": "KU812, KU812 cells", "result": 13.2, "unit": "µM"}, {"measurement": "IC50", "setting": "KYSE-30, KYSE-30 (oesophagus)", "result": "> 30", "unit": "µM"}, {"measurement": "IC50", "setting": "KYSE-70, KYSE-70 (oesophagus)", "result": 28.2, "unit": "µM"}, {"measurement": "IC50", "setting": "[1]", "result": "> 30", "unit": "µM"}, {"measurement": "EC50", "setting": "[1]", "result": 12, "unit": "µM"}, {"measurement": "IC50", "setting": "KYSE-270, KYSE-270 (oesophagus)", "result": "> 30", "unit": "µM"}, {"measurement": "IC50", "setting": "KYSE-270, cell line KYSE-270", "result": "> 30", "unit": "µM"}, {"measurement": "IC50", "setting": "KYSE-410, KYSE-410 (oesophagus)", "result": 21.7, "unit": "µM"}, {"measurement": "IC50", "setting": "KYSE-450, KYSE-450 (oesophagus)", "result": "> 30", "unit": "µM"}, {"measurement": "IC50", "setting": "KYSE-450, KYSE-450 cells", "result": "> 30", "unit": "µM"}, {"measurement": "IC50", "setting": "KYSE-510, KYSE-510 (oesophagus)", "result": "> 30", "unit": "µM"}, {"measurement": "IC50", "setting": "KYSE-520, KYSE-520 (oesophagus)", "result": 22.9, "unit": "µM"}, {"measurement": "IC50", "setting": "[2]", "result": 18.7, "unit": "µM"}, {"measurement": "EC50", "setting": "[2]", "result": 27.5, "unit": "µM"}, {"measurement": "IC50", "setting": "LAMA-84, LAMA-84 (haematopoietic_and_lymphoid_tissue)", "result": "> 30", "unit": "µM"}, {"measurement": "IC50", "setting": "LAMA-84, LAMA-84 cells", "result": "> 30", "unit": "µM"}, {"measurement": "IC50", "setting": "LCLC-97TM1, LCLC-97TM1 (lung)", "result": "> 30", "unit": "µM"}, {"measurement": "IC50", "setting": "LCLC-97TM1, LCLC-97TM1 cells", "result": "> 30", "unit": "µM"}, {"measurement": "IC50", "setting": "LCLC-103H, LCLC-103H (lung)", "result": "> 30", "unit": "µM"}, {"measurement": "IC50", "setting": "LCLC-103H, LCLC-103H cells", "result": "> 30", "unit": "µM"}, {"measurement": "IC50", "setting": "[3]", "result": 13.9, "unit": "µM"}, {"measurement": "EC50", "setting": "[3]", "result": 13.3, "unit": "µM"}, {"measurement": "EC50", "setting": "LN-18, LN-18 cells", "result": 13.3, "unit": "µM"}, {"measurement": "IC50", "setting": "[4]", "result": "> 30", "unit": "µM"}, {"measurement": "EC50", "setting": "[4]", "result": 22.1, "unit": "µM"}, {"measurement": "IC50", "setting": "LOX IMVI, LOX IMVI (skin)", "result": "> 30", "unit": "µM"}, {"measurement": "IC50", "setting": "LOX IMVI, LOX IMVI cells", "result": "> 30", "unit": "µM"}, {"measurement": "IC50", "setting": "LP-1, LP-1 cells", "result": 18.7, "unit": "µM"}, {"measurement": "EC50", "setting": "LP-1, LP-1 cells", "result": 18.7, "unit": "µM"}, {"measurement": "IC50", "setting": "[5]", "result": "> 30", "unit": "µM"}, {"measurement": "EC50", "setting": "[5]", "result": 9.77, "unit": "µM"}, {"measurement": "IC50", "setting": "LS180, LS 180 cells", "result": "> 30", "unit": "µM"}, {"measurement": "EC50", "setting": "LS180, LS 180 cells", "result": 9.77, "unit": "µM"}, {"measurement": "IC50", "setting": "[6]", "result": 16.3, "unit": "µM"}, {"measurement": "EC50", "setting": "[6]", "result": 16.3, "unit": "µM"}, {"measurement": "IC50", "setting": "LXF-289, LXF-289 (lung)", "result": "> 30", "unit": "µM"}, {"measurement": "IC50", "setting": "LoVo, LoVo (large_intestine)", "result": "> 30", "unit": "µM"}, {"measurement": "EC50", "setting": "LoVo, LoVo (large_intestine)", "result": 12.6, "unit": "µM"}, {"measurement": "IC50", "setting": "Lu-65, LU65 (lung)", "result": "> 30", "unit": "µM"}, {"measurement": "IC50", "setting": "Lu-99, LU99 (lung)", "result": 27.2, "unit": "µM"}, {"measurement": "EC50", "setting": "Lu-99, LU99 (lung)", "result": 12.9, "unit": "µM"}, {"measurement": "IC50", "setting": "[7]", "result": 14.1, "unit": "µM"}, {"measurement": "EC50", "setting": "[7]", "result": 14.1, "unit": "µM"}, {"measurement": "IC50", "setting": "MCF7, MCF7 (breast)", "result": 13.7, "unit": "µM"}, {"measurement": "EC50", "setting": "MCF7, MCF7 (breast)", "result": 10.8, "unit": "µM"}, {"measurement": "IC50", "setting": "MCF7, MCF7 cells", "result": 13.7, "unit": "µM"}, {"measurement": "EC50", "setting": "MCF7, MCF7 cells", "result": 10.8, "unit": "µM"}, {"measurement": "IC50", "setting": "MDA-MB-175-VII, MDA-MB-175-VII (breast)", "result": "> 30", "unit": "µM"}, {"measurement": "IC50", "setting": "MDA-MB-231, MDA-MB-231 (breast)", "result": "> 30", "unit": "µM"}, {"measurement": "IC50", "setting": "MDA-MB-231, cell line MDA-MB-231 (breast, NS)", "result": "> 30", "unit": "µM"}, {"measurement": "IC50", "setting": "MDA-MB-415, MDA-MB-415 (breast)", "result": "> 30", "unit": "µM"}, {"measurement": "IC50", "setting": "MDA-MB-436, MDA-MB-436 (breast)", "result": "> 30", "unit": "µM"}, {"measurement": "IC50", "setting": "MDA-MB-453, MDA-MB-453 (breast)", "result": 18.2, "unit": "µM"}, {"measurement": "IC50", "setting": "MDA-MB-468, MDA-MB-468 (breast)", "result": "> 30", "unit": "µM"}, {"measurement": "IC50", "setting": "MDA-MB-468, MDA-MB-468 cells", "result": "> 30", "unit": "µM"}, {"measurement": "IC50", "setting": "MEC1, MEC-1 (haematopoietic_and_lymphoid_tissue)", "result": 22.2, "unit": "µM"}, {"measurement": "IC50", "setting": "MEG-01, MEG-01 (haematopoietic_and_lymphoid_tissue)", "result": 29.2, "unit": "µM"}, {"measurement": "IC50", "setting": "MEL-JUSO, MEL-JUSO (skin)", "result": "> 30", "unit": "µM"}, {"measurement": "IC50", "setting": "MEL-JUSO, cell line MEL-JUSO (skin)", "result": "> 30", "unit": "µM"}, {"measurement": "IC50", "setting": "MFE-296, cell line MFE-296 (endometrium)", "result": 23.1, "unit": "µM"}, {"measurement": "IC50", "setting": "MG-63, cell line MG-63 (bone)", "result": "> 30", "unit": "µM"}, {"measurement": "IC50", "setting": "MG-63, cell line MG-63", "result": "> 30", "unit": "µM"}, {"measurement": "IC50", "setting": "[8]", "result": "> 30", "unit": "µM"}, {"measurement": "EC50", "setting": "[8]", "result": 11.3, "unit": "µM"}, {"measurement": "IC50", "setting": "MIA PaCa-2, cell line MIA PaCa-2 (pancreas)", "result": "> 30", "unit": "µM"}]}]}
